{"source": "patent US6534035B1", "about": "“Methods of inhibiting clot formation” (President and Fellows of Harvard College, priority 1998, dated 2003)", "target": "T1, guinea pig tissue transglutaminase (Cavia cutleri, UniProt P08587)", "T1 sequence (P08587 1-690)": "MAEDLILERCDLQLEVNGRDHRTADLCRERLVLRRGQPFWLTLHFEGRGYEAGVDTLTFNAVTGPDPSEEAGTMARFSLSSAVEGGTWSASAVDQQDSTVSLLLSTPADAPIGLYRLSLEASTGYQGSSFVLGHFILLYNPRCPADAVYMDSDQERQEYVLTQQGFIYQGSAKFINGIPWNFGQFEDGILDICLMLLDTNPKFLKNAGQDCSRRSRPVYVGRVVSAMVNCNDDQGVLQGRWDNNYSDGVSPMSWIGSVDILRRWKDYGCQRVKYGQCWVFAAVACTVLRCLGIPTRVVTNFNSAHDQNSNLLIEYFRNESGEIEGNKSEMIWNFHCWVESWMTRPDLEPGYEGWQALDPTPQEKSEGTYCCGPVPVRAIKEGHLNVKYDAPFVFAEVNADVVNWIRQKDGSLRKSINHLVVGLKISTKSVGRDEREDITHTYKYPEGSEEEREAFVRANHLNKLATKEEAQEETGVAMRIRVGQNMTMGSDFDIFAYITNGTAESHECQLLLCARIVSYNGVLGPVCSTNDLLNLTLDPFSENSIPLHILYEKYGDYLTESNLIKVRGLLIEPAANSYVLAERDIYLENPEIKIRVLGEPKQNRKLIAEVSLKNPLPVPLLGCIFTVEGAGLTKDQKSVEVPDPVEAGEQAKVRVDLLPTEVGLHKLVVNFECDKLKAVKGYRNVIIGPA", "test": "Crosslinking of α2AP13-24 into fibrin by tissue transglutaminase", "format": "biochemical", "conditions": "purified tissue transglutaminase (100 nM) added to FXIIIa-deficient fibrinogen", "experimental": "Fibrin clots (50 μl) were prepared in duplicate by mixing FXIII-free fibrinogen (2 mg/ml final), α2AP13-24 (SEQ ID NO:2; 0.5 mM final), CaCl2 (2 mM final), human plasma FXIII (100 nM/L final) and guinea pig tissue transglutaminase (100 nM/L final) and thrombin (1 U/ml final) and incubating at 37° C. for 2 hours. The crosslinking of α2AP13-24 was detected as described above.", "note": "Peptide text beside a SMILES is read from it. * marks the point of attachment. Biotin = O=C1N[C@H]2[C@H](CS[C@H]2CCCCC(=O)*)N1", "data": [{"smiles": "CC(C)C[C@H](NC(=O)[C@H](CC(C)C)NC(=O)[C@@H](NC(=O)[C@H](CC(C)C)NC(=O)[C@@H]1CCCN1C(=O)[C@H](CO)NC(=O)[C@@H](NC(=O)[C@H](CCC(N)=O)NC(=O)[C@H](CCC(=O)O)NC(=O)[C@H](CCC(N)=O)NC(=O)[C@@H](N)CC(N)=O)C(C)C)[C@@H](C)O)C(=O)N[C@@H](CCCCNC(=O)CCCC[C@@H]1SC[C@@H]2NC(=O)N[C@@H]21)C(=O)O", "note": "[α2AP13-24, NQEQVSPLTLLK] (H-NQEQVSPLTLLK(Biotin)-OH)", "values": [{"measurement": "crosslinking of peptide to fibrin", "value": "slight increase in crosslinking"}]}]}
